Experimental data reported in EP4692114A1, “CALCITONIN ANALOGUE, AND DERIVATIVE THEREOF AND USE THEREOF” (Hangzhou Sciwind Biosciences Co., Ltd., priority 2023, dated 2024).
*1 amine or outer side, *2 acyl side, *3 side chain or, on linkers, in order; H or OH if unused. Where a SMILES comes first, the peptide text is derived from it. [ ]: non-standard residue; d: D form. The star is where a group is joined. C22 diacid = O=C(O)CCCCCCCCCCCCCCCCCCCCC(=O)*; C20 diacid = O=C(O)CCCCCCCCCCCCCCCCCCC(=O)*; γGlu = O=C(O)[C@H](CCC(=O)[*:2])N[*:1]; βAsp = O=C(O)[C@H](CC(=O)[*:2])N[*:1]; AEEA = NCCOCCOCC(=O)O; Inp = O=C(O)C1CCNCC1

target: T1, human amylin receptors (Homo sapiens, UniProt O60896+P30988); assay: Luciferase assay of amylin (amylin receptor/CRE-luc cell line); format: cell-based; settings: stably transfected amylin receptor/CRE-luc CHO cells (CHO-K1/Gal5/AMY3), 24 hours incubation, luciferase readout;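 note: agonist potency from luminescence of cAMP response element-driven luciferase, EC50 derived from a standard curve of signal versus compound concentration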
T1 sequence (P30988 25-474): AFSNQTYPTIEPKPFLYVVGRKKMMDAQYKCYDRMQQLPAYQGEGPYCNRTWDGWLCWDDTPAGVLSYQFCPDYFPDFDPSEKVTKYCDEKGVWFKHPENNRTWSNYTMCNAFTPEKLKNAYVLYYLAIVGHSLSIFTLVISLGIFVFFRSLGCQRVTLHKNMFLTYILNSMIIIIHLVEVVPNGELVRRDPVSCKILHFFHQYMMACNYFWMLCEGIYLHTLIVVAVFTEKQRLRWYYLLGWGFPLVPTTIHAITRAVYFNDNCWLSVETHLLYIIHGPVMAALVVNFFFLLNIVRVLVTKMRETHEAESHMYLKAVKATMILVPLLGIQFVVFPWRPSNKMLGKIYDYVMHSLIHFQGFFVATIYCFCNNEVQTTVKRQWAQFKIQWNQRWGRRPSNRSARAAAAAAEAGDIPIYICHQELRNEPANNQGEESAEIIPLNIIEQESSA
T1 sequence (O60896 24-148 partner): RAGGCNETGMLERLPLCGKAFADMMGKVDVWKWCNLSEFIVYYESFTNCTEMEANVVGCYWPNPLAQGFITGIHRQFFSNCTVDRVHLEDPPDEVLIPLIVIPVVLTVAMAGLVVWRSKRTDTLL
Text: The objective of this assay is to test the activity or potency of calcitonin analogues or derivatives on human amylin receptors in vitro using a luciferase assay.
Using the standard protocol, CHO-K1/Gal5/AMY3 cells (purchased from GenScript, with the calcitonin receptor and the receptor activity modifying peptide (RAMP) constructed already) were transfected with a plasmid containing a luciferase expression cassette driven by multiple copies of cAMP response elements (CREs). The cells were cultured in an F12 medium containing 200 ug/mL Zeocin, 2 ug/mL puromycin, 100 ug/mL hygromycin, and 400 ug/mL G418 to afford a stably transfected amylin receptor/CRE-luc cell line.
To each well of a white 96-well plate was added 50 µL of the tested sample solution at a respective concentration.
The stably transfected amylin receptor/CRE-luc CHO cells were resuspended in the growth medium at a certain density, and 50 µL of the cell suspension was added at a density of about 20000 cells per well to the white 96-well plate containing the tested sample solution. After incubation of 24 hours at 37°C and 5% CO2, 100 µL of a Luciferase substrate was added to each well, incubated for 3 minutes, and finally was tested for luminescence on SpectraMax L (Molecular Devices) with the software SoftMax Pro 7.0.3 GxP. A standard curve was plotted using the fluorescent intensities for calculation of EC50.

SMILES	EC50 [nM]
CC(C)C[C@H](NC(=O)[C@H](CCCNC(=N)N)NC(=O)CNC(=O)[C@H](CC(C)C)NC(=O)[C@@H](NC(=O)[C@H](C)NC(=O)[C@@H](NC(=O)[C@H](CO)NC(=O)[C@H](CC(C)C)NC(=O)[C@H](CCC(N)=O)NC(=O)[C@H](CO)NC(=O)[C@H](C)NC(=O)COCCOCCNC(=O)COCCOCCNC(=O)[C@H](CCC(=O)O)NC(=O)CCCCCCCCCCCCCCCCCCC(=O)O)[C@@H](C)O)C(C)C)C(=O)N[C@@H](CO)C(=O)N[C@@H](CCC(=O)O)C(=O)N[C@@H](CCC(=O)O)C(=O)N[C@@H](CC(C)C)C(=O)N[C@@H](Cc1c[nH]cn1)C(=O)N[C@@H](CCCNC(=N)N)C(=O)N[C@@H](CC(C)C)C(=O)N[C@@H](CCC(N)=O)C(=O)N[C@@H](CC(=O)O)C(=O)N[C@@H](Cc1ccc(O)cc1)C(=O)N1CCC[C@H]1C(=O)N[C@@H](CCCNC(=N)N)C(=O)N[C@H](C(=O)N[C@@H](CC(=O)O)C(=O)N[C@H](C(=O)NCC(=O)N[C@@H](CO)C(=O)NCC(=O)N[C@@H](CO)C(=O)N1CCC[C@H]1C(N)=O)C(C)C)[C@@H](C)O [M58] ({C20 diacid}-E[AEEA][AEEA]ASQLSTAVLGRLSEELHRLQDYPRTDVGSGSP-NH2)	0.017
CC(C)C[C@H](NC(=O)[C@H](CCCNC(=N)N)NC(=O)CNC(=O)[C@H](CC(C)C)NC(=O)[C@@H](NC(=O)[C@H](C)NC(=O)[C@@H](NC(=O)[C@H](CO)NC(=O)[C@H](CC(C)C)NC(=O)[C@H](CCC(N)=O)NC(=O)[C@H](CO)NC(=O)[C@H](C)NC(=O)COCCOCCNC(=O)COCCOCCNC(=O)C[C@H](NC(=O)CCCCCCCCCCCCCCCCCCC(=O)O)C(=O)O)[C@@H](C)O)C(C)C)C(=O)N[C@@H](CO)C(=O)N[C@@H](CCC(=O)O)C(=O)N[C@@H](CCC(=O)O)C(=O)N[C@@H](CC(C)C)C(=O)N[C@@H](Cc1c[nH]cn1)C(=O)N[C@@H](CCCNC(=N)N)C(=O)N[C@@H](CC(C)C)C(=O)N[C@@H](CCC(N)=O)C(=O)N[C@@H](CC(=O)O)C(=O)N[C@@H](Cc1ccc(O)cc1)C(=O)N1CCC[C@H]1C(=O)N[C@@H](CCCNC(=N)N)C(=O)N[C@H](C(=O)N[C@@H](CC(=O)O)C(=O)N[C@H](C(=O)NCC(=O)N[C@@H](CO)C(=O)NCC(=O)N[C@@H](CO)C(=O)N1CCC[C@H]1C(N)=O)C(C)C)[C@@H](C)O [M59] ({C20 diacid-βAsp-AEEA-AEEA}-ASQLSTAVLGRLSEELHRLQDYPRTDVGSGSP-NH2)	0.017
CC(C)C[C@H](NC(=O)[C@H](CCCNC(=N)N)NC(=O)CNC(=O)[C@H](CC(C)C)NC(=O)[C@@H](NC(=O)[C@H](C)NC(=O)[C@@H](NC(=O)[C@H](CO)NC(=O)[C@H](CC(C)C)NC(=O)[C@H](CCC(N)=O)NC(=O)[C@H](CO)NC(=O)[C@H](C)NC(=O)COCCOCCNC(=O)COCCOCCNC(=O)C1CCN(C(=O)CCCCCCCCCCCCCCCCCCC(=O)O)CC1)[C@@H](C)O)C(C)C)C(=O)N[C@@H](CO)C(=O)N[C@@H](CCC(=O)O)C(=O)N[C@@H](CCC(=O)O)C(=O)N[C@@H](CC(C)C)C(=O)N[C@@H](Cc1c[nH]cn1)C(=O)N[C@@H](CCCNC(=N)N)C(=O)N[C@@H](CC(C)C)C(=O)N[C@@H](CCC(N)=O)C(=O)N[C@@H](CC(=O)O)C(=O)N[C@@H](Cc1ccc(O)cc1)C(=O)N1CCC[C@H]1C(=O)N[C@@H](CCCNC(=N)N)C(=O)N[C@H](C(=O)N[C@@H](CC(=O)O)C(=O)N[C@H](C(=O)NCC(=O)N[C@@H](CO)C(=O)NCC(=O)N[C@@H](CO)C(=O)N1CCC[C@H]1C(N)=O)C(C)C)[C@@H](C)O [M62] ({C20 diacid-Inp-AEEA-AEEA}-ASQLSTAVLGRLSEELHRLQDYPRTDVGSGSP-NH2)	0.016
CC(C)C[C@H](NC(=O)[C@H](CCCNC(=N)N)NC(=O)CNC(=O)[C@H](CC(C)C)NC(=O)[C@@H](NC(=O)[C@H](C)NC(=O)[C@@H](NC(=O)[C@H](CO)NC(=O)[C@H](CC(C)C)NC(=O)[C@H](CCC(N)=O)NC(=O)[C@H](CO)NC(=O)[C@H](C)NC(=O)COCCOCCNC(=O)COCCOCCNC(=O)COCCOCCNC(=O)COCCOCCNC(=O)CC[C@H](NC(=O)CCCCCCCCCCCCCCCCCCC(=O)O)C(=O)O)[C@@H](C)O)C(C)C)C(=O)N[C@@H](CO)C(=O)N[C@@H](CCC(=O)O)C(=O)N[C@@H](CCC(=O)O)C(=O)N[C@@H](CC(C)C)C(=O)N[C@@H](Cc1c[nH]cn1)C(=O)N[C@@H](CCCNC(=N)N)C(=O)N[C@@H](CC(C)C)C(=O)N[C@@H](CCC(N)=O)C(=O)N[C@@H](CC(=O)O)C(=O)N[C@@H](Cc1ccc(O)cc1)C(=O)N1CCC[C@H]1C(=O)N[C@@H](CCCNC(=N)N)C(=O)N[C@H](C(=O)N[C@@H](CC(=O)O)C(=O)N[C@H](C(=O)NCC(=O)N[C@@H](CO)C(=O)NCC(=O)N[C@@H](CO)C(=O)N1CCC[C@H]1C(N)=O)C(C)C)[C@@H](C)O [M63] ({C20 diacid-γGlu-AEEA-AEEA-AEEA-AEEA}-ASQLSTAVLGRLSEELHRLQDYPRTDVGSGSP-NH2)	0.037
CC(C)C[C@H](NC(=O)[C@H](CCCNC(=N)N)NC(=O)CNC(=O)[C@H](CC(C)C)NC(=O)[C@@H](NC(=O)[C@H](C)NC(=O)[C@@H](NC(=O)[C@H](CO)NC(=O)[C@H](CC(C)C)NC(=O)[C@H](CCC(N)=O)NC(=O)[C@H](CO)NC(=O)[C@H](C)NC(=O)COCCOCCNC(=O)COCCOCCNC(=O)CC[C@H](NC(=O)CCCCCCCCCCCCCCCCCCCCC(=O)O)C(=O)O)[C@@H](C)O)C(C)C)C(=O)N[C@@H](CO)C(=O)N[C@@H](CCC(=O)O)C(=O)N[C@@H](CCC(=O)O)C(=O)N[C@@H](CC(C)C)C(=O)N[C@@H](Cc1c[nH]cn1)C(=O)N[C@@H](CCCNC(=N)N)C(=O)N[C@@H](CC(C)C)C(=O)N[C@@H](CCC(N)=O)C(=O)N[C@@H](CC(=O)O)C(=O)N[C@@H](Cc1ccc(O)cc1)C(=O)N1CCC[C@H]1C(=O)N[C@@H](CCCNC(=N)N)C(=O)N[C@H](C(=O)N[C@@H](CC(=O)O)C(=O)N[C@H](C(=O)NCC(=O)N[C@@H](CO)C(=O)NCC(=O)N[C@@H](CO)C(=O)N1CCC[C@H]1C(N)=O)C(C)C)[C@@H](C)O [M66] ({C22 diacid-γGlu-AEEA-AEEA}-ASQLSTAVLGRLSEELHRLQDYPRTDVGSGSP-NH2)	0.017

The next lines start with the values.

EC50 [nM]	SMILES
0.016	CC(C)C[C@H](NC(=O)[C@H](CCCNC(=N)N)NC(=O)CNC(=O)[C@H](CC(C)C)NC(=O)[C@@H](NC(=O)[C@H](C)NC(=O)[C@@H](NC(=O)[C@H](CO)NC(=O)[C@H](CC(C)C)NC(=O)[C@H](CCC(N)=O)NC(=O)[C@H](CO)NC(=O)[C@H](C)NC(=O)COCCOCCNC(=O)COCCOCCNC(=O)[C@H](CC(=O)O)NC(=O)CCCCCCCCCCCCCCCCCCC(=O)O)[C@@H](C)O)C(C)C)C(=O)N[C@@H](CO)C(=O)N[C@@H](CCC(=O)O)C(=O)N[C@@H](CCC(=O)O)C(=O)N[C@@H](CC(C)C)C(=O)N[C@@H](Cc1c[nH]cn1)C(=O)N[C@@H](CCCNC(=N)N)C(=O)N[C@@H](CC(C)C)C(=O)N[C@@H](CCC(N)=O)C(=O)N[C@@H](CC(=O)O)C(=O)N[C@@H](Cc1ccc(O)cc1)C(=O)N1CCC[C@H]1C(=O)N[C@@H](CCCNC(=N)N)C(=O)N[C@H](C(=O)N[C@@H](CC(=O)O)C(=O)N[C@H](C(=O)NCC(=O)N[C@@H](CO)C(=O)NCC(=O)N[C@@H](CO)C(=O)N1CCC[C@H]1C(N)=O)C(C)C)[C@@H](C)O [M60] ({C20 diacid}-D[AEEA][AEEA]ASQLSTAVLGRLSEELHRLQDYPRTDVGSGSP-NH2)
0.017	CC(C)C[C@H](NC(=O)[C@H](CCCNC(=N)N)NC(=O)CNC(=O)[C@H](CC(C)C)NC(=O)[C@@H](NC(=O)[C@H](C)NC(=O)[C@@H](NC(=O)[C@H](CO)NC(=O)[C@H](CC(C)C)NC(=O)[C@H](CCC(N)=O)NC(=O)[C@H](CO)NC(=O)[C@H](C)NC(=O)CC[C@H](NC(=O)CCCCCCCCCCCCCCCCCCCCC(=O)O)C(=O)O)[C@@H](C)O)C(C)C)C(=O)N[C@@H](CO)C(=O)N[C@@H](CCC(=O)O)C(=O)N[C@@H](CCC(=O)O)C(=O)N[C@@H](CC(C)C)C(=O)N[C@@H](Cc1c[nH]cn1)C(=O)N[C@@H](CCCNC(=N)N)C(=O)N[C@@H](CC(C)C)C(=O)N[C@@H](CCC(N)=O)C(=O)N[C@@H](CC(=O)O)C(=O)N[C@@H](Cc1ccc(O)cc1)C(=O)N1CCC[C@H]1C(=O)N[C@@H](CCCNC(=N)N)C(=O)N[C@H](C(=O)N[C@@H](CC(=O)O)C(=O)N[C@H](C(=O)NCC(=O)N[C@@H](CO)C(=O)NCC(=O)N[C@@H](CO)C(=O)N1CCC[C@H]1C(N)=O)C(C)C)[C@@H](C)O [M65] ({C22 diacid-γGlu}-ASQLSTAVLGRLSEELHRLQDYPRTDVGSGSP-NH2)
0.017	CC(C)C[C@H](NC(=O)[C@H](CCCNC(=N)N)NC(=O)CNC(=O)[C@H](CC(C)C)NC(=O)[C@@H](NC(=O)[C@H](C)NC(=O)[C@@H](NC(=O)[C@H](CO)NC(=O)[C@H](CC(C)C)NC(=O)[C@H](CCC(N)=O)NC(=O)[C@H](CO)NC(=O)[C@H](C)NC(=O)COCCOCCNC(=O)COCCOCCNC(=O)COCCOCCNC(=O)COCCOCCNC(=O)CC[C@H](NC(=O)CCCCCCCCCCCCCCCCCCCCC(=O)O)C(=O)O)[C@@H](C)O)C(C)C)C(=O)N[C@@H](CO)C(=O)N[C@@H](CCC(=O)O)C(=O)N[C@@H](CCC(=O)O)C(=O)N[C@@H](CC(C)C)C(=O)N[C@@H](Cc1c[nH]cn1)C(=O)N[C@@H](CCCNC(=N)N)C(=O)N[C@@H](CC(C)C)C(=O)N[C@@H](CCC(N)=O)C(=O)N[C@@H](CC(=O)O)C(=O)N[C@@H](Cc1ccc(O)cc1)C(=O)N1CCC[C@H]1C(=O)N[C@@H](CCCNC(=N)N)C(=O)N[C@H](C(=O)N[C@@H](CC(=O)O)C(=O)N[C@H](C(=O)NCC(=O)N[C@@H](CO)C(=O)NCC(=O)N[C@@H](CO)C(=O)N1CCC[C@H]1C(N)=O)C(C)C)[C@@H](C)O [M67] ({C22 diacid-γGlu-AEEA-AEEA-AEEA-AEEA}-ASQLSTAVLGRLSEELHRLQDYPRTDVGSGSP-NH2)
